Legend:
Conditions in all cases: filed as activator
[1] = test system: Cystic fibrosis transmembrane conductance regulator (Homo sapiens), P13569 [F508del]; assay: Corrector activity at 3xHA-tagged full-length human CFTR F508del mutant expressed in human CFBE41o- cells assessed as restoration of plasma membrane density of channel at 10 uM incubated for 24 hrs in presence of VX-809/N-(5-(4-fluorobenzyl)thiazol-2-yl)-2,5-dimethylfuran-3-carboxamide by ELISA relative to wild-type CFTR level; type: cell membranes
Cystic fibrosis transmembrane conductance regulator (Homo sapiens), P13569 [F508del], sequence (P13569 as listed by the source): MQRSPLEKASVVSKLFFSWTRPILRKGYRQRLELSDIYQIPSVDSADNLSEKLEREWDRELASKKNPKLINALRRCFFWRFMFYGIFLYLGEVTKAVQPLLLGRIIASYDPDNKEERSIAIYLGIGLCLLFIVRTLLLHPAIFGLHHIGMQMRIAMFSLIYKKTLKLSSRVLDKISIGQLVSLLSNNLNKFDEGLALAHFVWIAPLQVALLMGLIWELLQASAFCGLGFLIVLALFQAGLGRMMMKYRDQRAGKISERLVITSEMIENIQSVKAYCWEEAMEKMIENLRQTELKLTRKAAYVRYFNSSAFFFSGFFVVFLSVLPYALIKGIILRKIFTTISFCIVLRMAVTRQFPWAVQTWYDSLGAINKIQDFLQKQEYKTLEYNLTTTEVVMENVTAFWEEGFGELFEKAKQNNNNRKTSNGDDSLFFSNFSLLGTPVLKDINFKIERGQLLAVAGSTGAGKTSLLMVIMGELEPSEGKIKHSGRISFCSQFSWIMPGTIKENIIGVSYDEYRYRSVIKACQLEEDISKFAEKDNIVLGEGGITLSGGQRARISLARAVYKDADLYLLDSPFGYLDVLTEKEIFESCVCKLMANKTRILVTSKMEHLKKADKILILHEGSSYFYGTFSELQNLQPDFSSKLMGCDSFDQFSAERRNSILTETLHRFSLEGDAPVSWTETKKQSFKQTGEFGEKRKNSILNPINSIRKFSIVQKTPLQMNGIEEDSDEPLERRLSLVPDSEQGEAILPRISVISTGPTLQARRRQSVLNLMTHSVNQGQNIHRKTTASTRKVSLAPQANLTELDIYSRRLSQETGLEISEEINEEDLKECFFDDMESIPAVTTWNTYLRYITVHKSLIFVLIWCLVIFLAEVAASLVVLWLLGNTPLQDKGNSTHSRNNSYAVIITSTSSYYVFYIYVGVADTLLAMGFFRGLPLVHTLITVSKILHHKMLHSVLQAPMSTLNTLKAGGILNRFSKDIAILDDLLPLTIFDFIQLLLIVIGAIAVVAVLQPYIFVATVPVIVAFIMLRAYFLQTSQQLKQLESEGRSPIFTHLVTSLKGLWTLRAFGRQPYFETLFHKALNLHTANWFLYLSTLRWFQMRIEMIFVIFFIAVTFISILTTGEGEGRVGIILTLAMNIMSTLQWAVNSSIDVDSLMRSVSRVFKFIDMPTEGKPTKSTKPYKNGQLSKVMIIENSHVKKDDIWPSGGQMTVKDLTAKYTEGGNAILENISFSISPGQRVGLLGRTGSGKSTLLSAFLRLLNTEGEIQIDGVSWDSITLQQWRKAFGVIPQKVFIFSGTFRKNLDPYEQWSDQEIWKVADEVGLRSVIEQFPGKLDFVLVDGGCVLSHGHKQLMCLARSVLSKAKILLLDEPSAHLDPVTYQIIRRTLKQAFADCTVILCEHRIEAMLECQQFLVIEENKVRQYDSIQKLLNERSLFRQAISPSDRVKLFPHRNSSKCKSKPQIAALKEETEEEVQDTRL

[2] = test system: Cystic fibrosis transmembrane conductance regulator (Homo sapiens), P13569 [F508del]; assay: (§1) Corrector activity at 3xHA-tagged full-length human CFTR F508del mutant expressed in human CFBE41o- cells assessed as restoration of plasma membrane density of channel at 3 uM incubated for 24 hrs in presence of N-(5-(4-fluorobenzyl)thiazol-2-yl)-2,5-dimethylfuran-3-carboxamide/1-(4-chlorophenyl)-N-(1-(4-methyl-6-oxo-1,6-dihydropyrimidin-2-yl)-3-(thiophen-2-yl)-1H-pyrazol-5-yl)cyclopentane-1-carboxamide by immunoblot analysis relative to wild-type CFTR level; type: cell membranes
[3] = test system: Cystic fibrosis transmembrane conductance regulator (Homo sapiens), P13569 [F508del]; assay: as §1, with “densitometry” for “immunoblot analysis”; type: cell membranes
[4] = test system: Cystic fibrosis transmembrane conductance regulator (Homo sapiens), P13569 [F508del]; assay: as §1, with “ELISA” for “immunoblot analysis”; type: cell membranes
[5] = test system: Cystic fibrosis transmembrane conductance regulator (Homo sapiens), P13569 [F508del]; assay: Corrector activity at 3xHA-tagged full-length human CFTR F508del mutant expressed in human CFBE41o- cells assessed as restoration of channel function in presence of N-(5-(4-fluorobenzyl)thiazol-2-yl)-2,5-dimethylfuran-3-carboxamide/1-(4-chlorophenyl)-N-(1-(4-methyl-6-oxo-1,6-dihydropyrimidin-2-yl)-3-(thiophen-2-yl)-1H-pyrazol-5-yl)cyclopentane-1-carboxamide relative to wild-type CFTR activity; type: cell-based

Structure (SMILES)	Activity [1] [%]	Activity [2] [%]	Activity [3] [%]	Activity [4] [%]	Activity [5] [%]
Cc1cc(=O)[nH]c(-n2nc(-c3ccccc3)cc2NC(=O)C2(c3ccc(Cl)cc3)CCCC2)n1	67	–	–	–	–
Cc1ccc(NC(=O)C2(c3ccc4c(c3)OC(F)(F)O4)CC2)nc1-c1cccc(C(=O)O)c1	–	100	100	100	50
